According to patent publication US20240246916A1, “7-NITRO-8-HYDROXYQUINOLINE DERIVATIVES, PREPARATION METHOD THEREFORE AND MEDICAL USE THEREOF” (Jiangsu Yahong Meditech Co., Ltd., priority 2021, published 2024):
≈ marks a conversion by molar mass, not a printed value.

Experiments:
Format in all cases: cell-based
[1] = system: Endothelial cell line HUVEC; assay: Inhibitory activity on cells, CellTiter-Glo viability, HUVEC; settings: Homo sapiens, 72 hours treatment
Outline: (§1)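 24 h attachment; HUVEC 2000, UM-UC-3/RM-1 3000, LNCaP 5000 cells/well. 8-pt 2.5× dilution from 100 μmol, 72 h, 37 °C/5% CO2. CellTiter-Glo; IC50 from curve fit; max = cells + DMSO vehicle, min = medium only.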

[2] = system: Bladder cancer cell line UM-UC-3; assay: Inhibitory activity on cancer cells, CellTiter-Glo viability, UM-UC-3; settings: Homo sapiens, UMUC3, 72 hours treatment
Outline: as §1

[3] = system: Prostate cancer cell line LNcaP; assay: Inhibitory activity on cancer cells, CellTiter-Glo viability, LNcaP; settings: Homo sapiens, 72 hours treatment
Outline: as §1

[4] = system: Mouse prostate cancer cell line RM1; assay: Inhibitory activity on cancer cells, CellTiter-Glo viability, RM1; settings: 72 hours treatment
Outline: as §1

[5] = system: Escherichia coli (carbapenem-resistant clinical isolate; ATCC25922); assay: MIC by micro broth dilution (CLSI), Escherichia coli; settings: Escherichia coli; for MIC50 / MIC90: ATCC25922, Clinical strain; for MIC50: read-out: MIC50; for MIC90: read-out: MIC90; for MIC: Standard strain ATCC25922, read-out: MIC
Outline: (§2)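 First, DMSO solutions were diluted over 128 to 0.06 mg/L in CAMHB; next, overnight cultures adjusted to 0.5 McFarland and diluted 100-fold were added to give 10^5 CFU/mL; then incubation ran 20 hours at 35±2° C, with CLSI 2019 M100 used for interpretation.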

[6] = system: Acinetobacter baumannii (carbapenem-resistant clinical isolates; ATCC19606); assay: MIC by micro broth dilution (CLSI), Acinetobacter baumannii; settings: Acinetobacter baumannii; for MIC50 / MIC90: ATCC19606, Clinical strain; for MIC50: read-out: MIC50; for MIC90: read-out: MIC90; for MIC: Standard strain ATCC19606, read-out: MIC
Outline: as §2

[7] = system: Staphylococcus aureus (methicillin-resistant and sensitive clinical isolates; ATCC29213); assay: MIC by micro broth dilution (CLSI), Staphylococcus aureus; settings: for MIC50 / MIC90: Clinical strain; for MIC50: read-out: MIC50; for MIC90: read-out: MIC90; for MIC: Standard strain ATCC29213, read-out: MIC
Outline: as §2

Row | SMILES | IC50 [1] [µM] | IC50 [2] [µM] | IC50 [3] [µM] | IC50 [4] [µM] | MIC50 [5] [µg/mL] | MIC90 [5] [µg/mL] | MIC [5] [µg/mL] | MIC50 [6] [µg/mL] | MIC90 [6] [µg/mL] | MIC [6] [µg/mL] | MIC50 [7] [µg/mL] | MIC90 [7] [µg/mL] | MIC [7] [µg/mL]
1 | CC(C)(C)C(=O)N1CCN(c2ccnc3c(O)c([N+](=O)[O-])cc(Cl)c23)CC1 [Example 45, 4-(5-Chloro-8-hydroxy-7-nitroquinolin-4-yl)-1-(2,2,2-trimethylacetyl)piperazine] | 10.1 | 23.6 | 5.43 | 12.1 | > 128 | > 128 | > 128 | > 128 | > 128 | > 128 | > 128 | > 128 | > 128
2 | CCOC(=O)C1CCN(c2ccnc3c(O)c([N+](=O)[O-])cc(Cl)c23)CC1 [Example 46, Ethyl 1-(5-chloro-8-hydroxy-7-nitroquinolin-4-yl)piperidine-4-carboxylate] | 0.56 | 0.96 | 0.88 | 1.86 | > 128 | > 128 | > 128 | > 128 | > 128 | > 128 | 32 (≈ 84.3 µM) | 64 (≈ 169 µM) | 32 (≈ 84.3 µM)
3 | O=[N+]([O-])c1cc(Cl)c2c(Oc3ccccc3)ccnc2c1O [Example 47, 5-Chloro-7-nitro-4-phenoxyquinolin-8-ol] | 1.59 | 2.38 | 0.97 | 6.07 | > 128 | > 128 | > 128 | > 128 | > 128 | > 128 | 16 (≈ 50.5 µM) | 32 (≈ 101 µM) | 32 (≈ 101 µM)
4 | CS(=O)(=O)N1CCN(c2ccnc3c(O)c([N+](=O)[O-])cc(Cl)c23)CC1 [Example 48, 5-Chloro-4-(4-(methylsulfonyl)piperazin-1-yl)-7-nitroquinolin-8-ol] | 6.58 | 10.6 | 10.6 | 14.4 | > 128 | > 128 | > 128 | > 128 | > 128 | > 128 | 64 (≈ 165 µM) | 64 (≈ 165 µM) | 64 (≈ 165 µM)
5 | CC(C)C(=O)N1CCN(c2ccnc3c(O)c([N+](=O)[O-])cc(Cl)c23)CC1 [Example 50, 4-(5-Chloro-8-hydroxy-7-nitroquinolin-4-yl)-1-(2,2-dimethylacetyl)piperazine] | 2.94 | 3.4 | 2.86 | 4.29 | > 128 | > 128 | > 128 | > 128 | > 128 | > 128 | > 128 | > 128 | > 128
6 | Cl.O=[N+]([O-])c1cc(Cl)c2c(-c3ccccc3)ccnc2c1O [Example 51, 5-chloro-7-nitro-4-phenylquinolin-8-ol hydrochloride] | 1.71 | 2.17 | 1.51 | 4.25 | > 128 | > 128 | > 128 | > 128 | > 128 | > 128 | 1 | 2 | 1
7 | CCOC(=O)N1CCN(c2ccnc3c(O)c([N+](=O)[O-])cc(Cl)c23)CC1 [Example 52, Ethyl 4-(5-chloro-8-hydroxy-7-nitroquinolin-4-yl)piperazine-1-carboxylate] | 0.53 | 4.71 | 0.58 | 1.42 | > 128 | > 128 | > 128 | > 128 | > 128 | > 128 | 64 (≈ 168 µM) | 128 (≈ 336 µM) | 128 (≈ 336 µM)
8 | O=[N+]([O-])c1cc(Cl)c2c(OCC3CC3)ccnc2c1O [Example 53, 5-Chloro-4-(cyclopropylmethoxy)-7-nitroquinolin-8-ol] | 0.59 | 0.86 | 1.08 | 3.06 | 128 (≈ 434 µM) | 128 (≈ 434 µM) | 128 (≈ 434 µM) | 128 (≈ 434 µM) | 128 (≈ 434 µM) | 128 (≈ 434 µM) | 8 (≈ 27.1 µM) | 16 (≈ 54.3 µM) | 16 (≈ 54.3 µM)
9 | COCCCOC1CCN(c2ccnc3c(O)c([N+](=O)[O-])cc(Cl)c23)CC1.Cl.Cl [Example 54, 5-chloro-4-(4-(3-methoxypropoxy)piperidin-1-yl)-7-nitroquinolin-8-ol dihydrochloride] | 0.5 | 1.42 | 0.25 | 1.62 | 32 | 64 | 64 | 128 | > 128 | 64 | 16 | 16 | 16
10 | O=[N+]([O-])c1cc(Cl)c2c(N3CCC(F)(F)CC3)ccnc2c1O [Example 55, 5-Chloro-4-(4,4-difluoropiperidin-1-yl)-7-nitroquinolin-8-ol] | 0.8 | 2.23 | 0.25 | 2.88 | > 128 | > 128 | > 128 | > 128 | > 128 | > 128 | 4 (≈ 11.6 µM) | 4 (≈ 11.6 µM) | 4 (≈ 11.6 µM)
11 | O=C1CCN(c2ccnc3c(O)c([N+](=O)[O-])cc(Cl)c23)CC1 [Example 56, 1-(5-Chloro-8-hydroxy-7-nitroquinolin-4-yl)piperidin-4-one] | 32.1 | 52.8 | 47.6 | 68.5 | > 128 | > 128 | > 128 | > 128 | > 128 | > 128 | 64 (≈ 199 µM) | 64 (≈ 199 µM) | 128 (≈ 398 µM)
12 | O=[N+]([O-])c1cc(Cl)c2c(OC3CCCC3)ccnc2c1O [Example 59, 5-Chloro-4-(cyclopentyloxy)-7-nitroquinolin-8-ol] | 0.78 | 1.49 | 1.5 | 1.46 | 128 (≈ 415 µM) | 128 (≈ 415 µM) | 128 (≈ 415 µM) | > 128 | > 128 | 128 (≈ 415 µM) | 16 (≈ 51.8 µM) | 16 (≈ 51.8 µM) | 16 (≈ 51.8 µM)
13 | CCOc1ccnc2c(O)c([N+](=O)[O-])cc(Cl)c12 [Example 61, 5-Chloro-4-ethoxy-7-nitroquinolin-8-ol] | 2.58 | 5.29 | 5.22 | 4.26 | > 128 | > 128 | > 128 | > 128 | > 128 | > 128 | 16 (≈ 59.6 µM) | 32 (≈ 119 µM) | 16 (≈ 59.6 µM)
